Columns and labels:
[1] = test system: FS, FVr and FVb fibroblasts; experiment: Demonstration of F actin (phalloidin-FITC) in fibroblasts cultured in lattice; assay type: cell-based; conditions: lupeol 7 μg/ml, lattices cultured for 5 days
Procedure: Normal fibroblasts (FS), fibroblasts from a red or recent stretch mark (FVr) and fibroblasts from an older white stretch mark (FVb) were used in this study. The fibroblasts were cultured in the absence or in the presence of lupeol at a concentration of 7 μg/ml. Fibroblasts are large (100 μm) cells with a fusiform or star-shaped morphology. Their cytoplasm contains an assembly of protein filaments (intermediate filaments, microtubules, actin filaments) which constitute the framework, or cytoskeleton, thereof in close relationship with the plasma membrane. 10% of all cell proteins consist of actin, polymerized in the form of filaments and bundles, which are often described as stress fibers. Actin filaments contribute to the contractile activity of the fibroblast by generating isometric forces. Several types of actin exist, including polymerized fibrillar actin (F actin) and a smooth muscle actin (αSM actin). Lattices pulled over a nylon ring were cultured for 5 days in Petri dishes (Ø 50 mm). They were fixed with 3% paraformaldehyde in PBS for 20 min, and then rinsed with PBS. They were subsequently incubated with PBS+0.1% Triton X100 in order to permeabilize the membrane. […] They were mounted between slide and cover slip with a drop of Vectashield, and were then observed under a fluorescence microscope, under UV.

[2] = test system: fibroblasts from a red or recent stretch mark (FVr); experiment: Isometric forces developed by fibroblasts in lattice, red stretch mark fibroblasts; assay type: cell-based; conditions: FVr + lupeol 7 μg/ml, at 7 hours of culture; FVr alone 5547 V±808
Source text: (§1) Normal fibroblasts (FS), fibroblasts from a red or recent stretch mark (FVr) and fibroblasts from an older white stretch mark (FVb) were used in this study. Mechanical inhibition of the retraction of the collagen gel in which fibroblasts are embedded is reflected by the generation of a force, called “retraction force” or “isometric force”. The lattices develop in a culture dish that consists of 8 rectangular cells. Placed into each one are 2 flexible silicon slides, the lower parts of which consist of grids to which the lattice attaches when it polymerizes. The lattice develops between 2 slides so as to give a rectangular shape that is slightly shrunken at the center. This shape in conventional mechanics is referred to as a “diabolo” shape. These slides have, in their upper part, a strain gauge system made of gold deposited at their surface. Under the influence of the retraction force developed by the fibroblasts, the silicon slides distort. This is reflected by a variation in the value of electrical resistance of the stress gauge, measured by means of a Wheatstone bridge. This variation indicates the force developed within the lattice, measured in real time via a PC acquisition card and suitable software. The mixture for producing the lattices was poured into the rectangular cells of the culture dish. A gel formed in a few minutes at 37° C. […] The isometric forces were measured for 48 hours.

Normal fibroblasts (FS) [3] = experiment: Retraction of collagen lattice (free lattice), normal fibroblasts; assay type: cell-based
Procedure: (§2) Normal fibroblasts (FS), fibroblasts from a red or recent stretch mark (FVr) and fibroblasts from an older white stretch mark (FVb) were used in this study.
(§3) The fibroblasts were cultured in the absence or in the presence of lupeol at a concentration of 7 μg/ml.
(§4) The mechanism of retraction consists of the gathering up and rearranging of collagen by fibroblasts. The collagen polymerizes into fibrils to which the cells attach. The latter pull on the fibrils by virtue of their migratory movement, and thus reorganize the matrix. The diameter of the lattice is then decreased.
(§5) The mixture for producing lattices was poured into Petri dishes 50 mm in diameter. A gel formed in a few minutes at 37° C. The lattices were cultured with or without lupeol. The degree of retraction was determined by measuring the diameters of the lattices.

HSP47 heat shock protein = experiment: Western blotting, expression of the HSP47 protein in fibroblasts in culture; assay type: cell-based, human; conditions: dose of 20 μg/ml, incubation time of 48 h
Procedure: This technique consists of: • separation of the various proteins on a polyacrylamide gel under denaturing conditions; • transfer of the proteins onto a specific membrane (PVDF membrane, sold by the company Biorad); • labeling of the protein of interest with a specific antibody (HSP47, Stressgen); • “colorimetric” visualization (Sigma Fast, BCPIP/NBT). Various nontoxic concentrations (5, 10 and 20 μg/ml) and several incubation times (24 and 48 hours) were tested.

[4] = test system: fibroblasts from an older white stretch mark (FVb); experiment: Isometric forces developed by fibroblasts in lattice, white stretch mark fibroblasts; assay type: cell-based; conditions: FVb + lupeol 7 μg/ml, at 7 hours of culture; FVb alone 3999 V±881
Source text: as §1

Normal fibroblasts (FS) [5] = experiment: Isometric forces developed by fibroblasts in lattice, normal fibroblasts; assay type: cell-based; conditions: FS + lupeol 7 μg/ml, at 7 hours of culture; FS alone 3583 V±1076
Source text: as §1

[6] = test system: fibroblasts from an older white stretch mark (FVb); experiment: Retraction of collagen lattice (free lattice), white stretch mark fibroblasts; assay type: cell-based
Procedure: as §2, §3, §4, §5

gene encoding HSP47 = experiment: cDNA microarray, expression of the gene encoding HSP47 in human skin fibroblasts; assay type: cell-based; conditions: 4.5 μg/ml lupeol
Procedure: We used the “cDNA microarray” method for studying the effects of the product on the expression of the genes encoding structural and regulatory proteins of potential interest in skin physiology. Such an approach makes it possible to screen, in a single step, the effects of a product or of a treatment on gene expression in a given biological system and to obtain a signature of the effects of this treatment.
The product was applied to human skin fibroblasts cultured in MEM/M199 for 18 hours. The lupeol, in solution in ethanol was tested at the concentration of […], this concentration corresponds to a noncytotoxic dose.
The methodology used is that recommended by Clontech (Palo Alto, USA), and comprises: • a step consisting in extracting and purifying the total RNA; • a step consisting in purifying the messenger RNAs according to the AtlasPure protocol (Clontech); • labeling of the DNA probes with P^32 by reverse transcription; • purifying the label probes by exclusion column chromatography and verification of the quality and of the equivalence by liquid scintillation counting; and • hybridizing membranes (provided by the company Custom Atlas BIOAlternative) with the radiolabeled probes (68° C., overnight). Analysis of Results
The membranes were analyzed by direct quantification of the radioactivity of the spots using a Cyclone PhosphorImager (provided by the company Packard Instrument).
The results are expressed in relative units (RU, mean radioactivity of the points of the double spot corresponding to each gene, corrected for the background noise and for the differences in probe labeling intensity).
The results were analyzed case by case, label by label. Arbitrarily, the limit of significance was fixed at approximately +30% of the control for a stimulating effect, i.e. for an effect greater than 130%.

[7] = test system: FS, FVr and FVb fibroblasts; experiment: Demonstration of αSM actin (immunolabeling) in fibroblasts cultured in lattice; assay type: cell-based; conditions: lupeol 7 μg/ml, lattices cultured for 5 days
Procedure: Normal fibroblasts (FS), fibroblasts from a red or recent stretch mark (FVr) and fibroblasts from an older white stretch mark (FVb) were used in this study. The fibroblasts were cultured in the absence or in the presence of lupeol at a concentration of 7 μg/ml. Fibroblasts are large (100 μm) cells with a fusiform or star-shaped morphology. Their cytoplasm contains an assembly of protein filaments (intermediate filaments, microtubules, actin filaments) which constitute the framework, or cytoskeleton, thereof in close relationship with the plasma membrane. 10% of all cell proteins consist of actin, polymerized in the form of filaments and bundles, which are often described as stress fibers. Actin filaments contribute to the contractile activity of the fibroblast by generating isometric forces. Several types of actin exist, including polymerized fibrillar actin (F actin) and a smooth muscle actin (αSM actin). Lattices pulled over a nylon ring were cultured for 5 days in Petri dishes (Ø 50 mm). They were fixed with 3% paraformaldehyde in PBS for 20 min, and then rinsed with PBS. They were subsequently incubated with PBS+0.1% Triton X100 so as to permeabilize the membrane with respect to antibodies, and then with 3% H2O2 in order to eliminate endogenous peroxidases. […] was blocked with 3% BSA+10% sheep serum in PBS. […]

[8] = test system: fibroblasts from a red or recent stretch mark (FVr); experiment: Retraction of collagen lattice (free lattice), red stretch mark fibroblasts; assay type: cell-based
Procedure: as §2, §3, §4, §5

human skin fibroblasts = experiment: Cytotoxicity of test concentrations on fibroblasts in culture; assay type: cell-based

C=C(C)[C@@H]1CC[C@]2(C)CC[C@]3(C)[C@H](CC[C@@H]4[C@@]5(C)CC[C@H](O)C(C)(C)[C@@H]5CC[C@]43C)[C@@H]12 [lupeol, Lupeol] was tested. Which “F actin stress fibers and fibroblast morphology” value [1] did it give?
The value was “lose their F actin stress fibers and evolve toward a star-shaped form”.

What about the isometric forces [2] of the same molecule?
The isometric forces was 2488 V.

And the Gel diameter (Normal fibroblasts (FS) [3]; FS + lupeol 7 μg/ml, FS alone 2.5)?
The Gel diameter was 3.

And the “% decrease in retraction” value (Normal fibroblasts (FS) [3]; FS, lupeol 7 μg/ml, at D2)?
Its value is 20%.

What about the “HSP47 production (Western blotting)” value (HSP47 heat shock protein) of the same molecule?
Its value is “stimulation of HSP47 production”.

What about the isometric forces [4] of the same molecule?
The isometric forces was 1365 V.

What about the isometric forces (Normal fibroblasts (FS) [5]) of the same molecule?
The isometric forces was 1325 V.

And the Gel diameter ([6]; FVb + lupeol 7 μg/ml, FVb alone 2.9)?
The Gel diameter was 3.2.

And the “% decrease in retraction” value ([6]; FVb, lupeol 7 μg/ml, at D2)?
Its value is 10%.

What about the “HSP47 gene expression, % of the control” value (gene encoding HSP47; 18 hours, human skin fibroblasts) of the same molecule?
Its value is 129 % of the control.

And the “HSP47 gene expression, relative units (RU)” value (gene encoding HSP47; 18 hours, human skin fibroblasts, control cells 28.2 RU)?
The value was 36.4 RU.

What about the “regulation of the expression of the gene encoding HSP47” value (gene encoding HSP47; incubation for 18 hours) of the same molecule?
Its value is “positive regulation”.

And the “labeling for αSM actin” value [7]?
The value was “weak labeling for αSM actin”.

And the Gel diameter ([8]; FVr + lupeol 7 μg/ml, FVr alone 3)?
The Gel diameter was 3.6.

And the “% decrease in retraction” value ([8]; FVr, lupeol 7 μg/ml, at D2)?
The value was 20%.

And the “cytotoxicity of the tested concentration” value (human skin fibroblasts; 4.5 μg, in solution in ethanol, human skin fibroblasts)?
Its value is “noncytotoxic”.

What about the “toxicity of the tested concentrations” value (human skin fibroblasts; 5, 10 and 20 μg/ml, fibroblasts in culture) of the same molecule?
Its value is “nontoxic”.

Source: US8747815B2, “Use of a cosmetic of pharmaceutical composition, comprising a lupeol-rich extract as an active ingredient for stimulating the synthesis of heat shock proteins” (Laboratoires Expanscience, priority 2003, dated 2014)
